Values belong to the compound of their own block, whether it stands above or below them.
Columns and labels:
CDK6 = test system: CDK6; parameters: method as in PMID 29357250; settings: cited from earlier work
FLT3 = target: T1, FLT3 (Homo sapiens, UniProt P36888); assay: Z'-LYTE kinase assay; assay type: biochemical; settings: three separate experiments ± SD
T1 construct: purchased Invitrogen/Life Technologies
T1 sequence (P36888 27-993): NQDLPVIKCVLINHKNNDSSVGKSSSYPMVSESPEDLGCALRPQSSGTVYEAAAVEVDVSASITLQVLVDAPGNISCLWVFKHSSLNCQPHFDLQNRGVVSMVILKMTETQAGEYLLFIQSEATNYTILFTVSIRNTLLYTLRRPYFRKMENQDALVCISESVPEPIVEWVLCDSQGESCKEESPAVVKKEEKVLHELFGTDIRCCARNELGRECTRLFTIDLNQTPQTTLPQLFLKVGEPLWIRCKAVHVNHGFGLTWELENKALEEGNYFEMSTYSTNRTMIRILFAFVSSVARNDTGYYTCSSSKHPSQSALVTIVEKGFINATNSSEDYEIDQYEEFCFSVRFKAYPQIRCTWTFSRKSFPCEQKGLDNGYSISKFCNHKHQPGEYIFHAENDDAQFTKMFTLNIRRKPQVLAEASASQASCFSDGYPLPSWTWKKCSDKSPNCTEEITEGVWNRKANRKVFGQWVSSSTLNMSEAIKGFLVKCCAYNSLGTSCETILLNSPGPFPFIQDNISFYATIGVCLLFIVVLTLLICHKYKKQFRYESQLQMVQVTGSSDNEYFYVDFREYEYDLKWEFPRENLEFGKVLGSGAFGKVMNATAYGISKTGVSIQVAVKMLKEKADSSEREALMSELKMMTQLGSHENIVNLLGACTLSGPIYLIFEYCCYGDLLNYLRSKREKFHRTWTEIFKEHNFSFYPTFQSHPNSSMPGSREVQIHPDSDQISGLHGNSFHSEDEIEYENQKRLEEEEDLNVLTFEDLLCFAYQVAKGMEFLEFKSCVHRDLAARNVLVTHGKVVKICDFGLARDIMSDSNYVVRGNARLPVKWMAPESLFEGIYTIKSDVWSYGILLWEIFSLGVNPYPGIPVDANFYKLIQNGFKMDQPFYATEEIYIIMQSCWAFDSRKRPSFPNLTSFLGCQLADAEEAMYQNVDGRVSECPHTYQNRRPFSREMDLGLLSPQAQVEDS
Experimental: (§1) The Z’-LYTE® technology, which relies on FRET (Fluorescence Resonance Energy Transfer) from Invitrogen/Life Technologies, was employed for this evaluation for all kinases except VEGFR-2. The VEGFR-2 kinase assay was conducted in a 96-well streptavidin-coated plate using a recombinant human VEGFR-2/KDR ELISA kit, following the manufacturer’s instructions. […] Statistical significance was assessed using one-way analysis of variance (ANOVA), followed by the Dunnett test; data are represented as means ± SD.

CDK2 = target: T2, CDK2 (Homo sapiens, UniProt P24941); assay: Z'-LYTE kinase assay; assay type: biochemical; settings: three separate experiments ± SD
T2 construct: purchased Invitrogen/Life Technologies
Experimental: as §1

CDK4 = test system: CDK4; parameters: method as in PMID 29357250; settings: cited from earlier work
MV4-11 cell xenografts = test system: MV4-11 cell xenografts; parameters: method as in PMID 29357250; settings: cited from earlier work
FLT3 kinase = target: FLT3 kinase; parameters: method as in PMID 36403191, PMID 37446914; settings: cited from earlier work
[1] = test system: FLT3 ITD-mutated MV4-11 AML cells; parameters: method as in PMID 36403191, PMID 37446914; settings: after 72 h; cited from earlier work
[2] = test system: MCF-12A normal breast cell line; parameters: method as in PMID 36844536; settings: cited from earlier work
[3] = test system: MCF-7 breast cancer cell line; parameters: method as in PMID 36844536; settings: cited from earlier work

- IC50 (FLT3): 0.79 ± 0.08 nM
- IC50 (CDK2): 1.99 ± 0.12 nM
Compound: CN1CCN(Cc2ccc(NC(=O)c3n[nH]cc3Nc3ncnc4[nH]ccc34)cc2)CC1 [FN-1501, 4-((7H-Pyrrolo[2,3-d]pyrimidin-4-yl)amino)-N-(4-((4-methylpiperazin-1-yl)methyl)phenyl)-1H-pyrazole-3-carboxamide]
- IC50 (CDK6): 1.96 nM
- IC50 (CDK4): 0.85 nM
- effectiveness in treating leukemia in mouse models (MV4-11 cell xenografts): remarkable effectiveness

Compound: COc1cc(C=C2C(=O)Nc3ccccc32)ccc1O [III]
- IC50 (FLT3 kinase): 2490 nM
- IC50 [1]: 4300 nM

Compound: COc1cc(C=C2C(=O)Nc3ccc(Cl)cc32)ccc1OCc1ccccn1 [IV]
- impact on the MCF-12A normal breast cell line [2]: no impact
- IC50 [3]: 17000 nM

— paper PMC11124822, “Discovery and Anticancer Screening of Novel Oxindole-Based Derivative Bearing Pyridyl Group as Potent and Selective Dual FLT3/CDK2 Kinase Inhibitor” (Pharmaceuticals, 2024)
